Measurements reported in patent publication US20130059805A1, “COMPOSITION COMPRISING AN AMORPHOUS NON-CRYSTALLINE GLASS FORM OF AZITHROMYCIN” (North-West University, priority 2009, published 2013).
In brackets after ≈: the same amount, converted by molar mass. Where two headings read alike, the source gives them in different places.

Tests used:
[1] = Solubility in four media (excess solid, 37 degrees Celsius, 24 h, HPLC assay); type: physicochemical; conditions: for solubility at 24 h: 37 °C, thermodynamic from solid
Protocol: In further analysis of the amorphous non-crystalline glass form (Form-II) of azithromycin, each of five replicate test tubes were filled with an excess of amorphous non-crystalline glass form (Form-II) of azithromycin and 10 ml of solubility medium. The process was performed with each of the following mediums: 0.1 N hydrochloric acid (pH 1), acetate buffer (pH 4.5), phosphate buffer (pH 6.8) and distilled water. This method was also used for testing the prior art azithromycin dihydrate.
The test tubes were then fixed to a rotating axis (54 rpm) and submerged in a water bath at 37 degrees Celsius±2 degrees Celsius for twenty-four hours. The contents of the test tubes were filtered through a 0.45 μm filter and the respective filtrates were subsequently diluted.
The concentrations of the filtrates were determined by HPLC (high performance liquid chromatography) assay. The HPLC assay was performed utilising a mobile phase (600:400) consisting of 8.7 g/L potassium dihydrogen phosphate buffer (pH 4.5) and acetonitrile. A Luna C18 250 mm×4.6 mm column was used with a flow rate of 0.5 mL/min and a wavelength of 210 nm. Validation of this method provided a linear regression r^2 of 0.9999.

[2] = Structural stability study at 40° C. and 75% relative humidity (XRPD, DSC, thermal microscopy); type: physicochemical; conditions: 4 week testing period
Source text: FIG. 5: is a characteristic XRPD (x-ray powder diffraction pattern) of amorphous non-crystalline glass form (Form-II) of azithromycin taken over a period of time wherein 0 is at time of preparation, 1 is week 1, 2 is week 2, 3 is week 3 and 4 is week 4 (Vertical axis: intensity (Lin (counts)); Horizontal axis: 2 Theta (degrees));
FIG. 12: is a DSC (differential scanning calorimetry) trace of amorphous non-crystalline glass form (Form-II) of azithromycin, taken over a period of time, according to one embodiment of the invention wherein 0 is at time of preparation, 1 is week 1, 2 is week 2, 3 is week 3 and 4 is week 4 (Vertical axis: Heat flow (mW); Horizontal axis: temperature (degrees Celsius));
FIG. 13: is a thermal microscopy image (at 25 degrees Celsius) of amorphous non-crystalline glass form (Form-II) of azithromycin taken in the fourth week after preparation according to one embodiment of the invention; and […]

[3] = background statement; cited from earlier work
[4] = oral; cited from earlier work
[5] = 0.1 N HCl; cited from earlier work

For CC[C@H]1OC(=O)[C@H](C)[C@@H](O[C@H]2C[C@@](C)(OC)[C@@H](O)[C@H](C)O2)[C@H](C)[C@@H](O[C@@H]2O[C@H](C)C[C@H](N(C)C)[C@H]2O)[C@](C)(O)C[C@@H](C)CN(C)[C@H](C)[C@@H](O)[C@]1(C)O, the “solubility in 0.1 N HCl” value ([1]; 0.1 N HCl (pH 1), 37 degrees Celsius) was 45.703 ± 0.917 mg/mL (≈ 61 mM), the “solubility in acetate buffer (pH 4.5)” value ([1]; acetate buffer pH 4.5, 37 degrees Celsius) was 18.045±0.485 mg/mL and the “solubility in distilled water” value ([1]; distilled water, 37 degrees Celsius) was 1.357 ± 0.233 mg/mL (≈ 1.81 mM). The “solubility in phosphate buffer (pH 6.8)” value ([1]; phosphate buffer pH 6.8, 37 degrees Celsius) was 10.968±0.182 mg/mL and the “structural stability (solid form)” value [2] was “structurally stable”.

Work on CC[C@H]1OC(=O)[C@H](C)[C@@H](O[C@H]2C[C@@](C)(OC)[C@@H](O)[C@H](C)O2)[C@H](C)[C@@H](O[C@@H]2O[C@H](C)C[C@H](N(C)C)[C@H]2O)[C@](C)(O)C[C@@H](C)CN(C)[C@H](C)[C@@H](O)[C@]1(C)O [azithromycin raw material (dihydrate), azithromycin dihydrate] yielded a solubility at 24 h ([1]; 0.1 N hydrochloric acid, simulated gastric fluid, 0.1 N HCl (pH 1), 37 degrees Celsius, read-out: solubility in 0.1 N HCl) of 40.81 ± 0.368 mg/mL, a solubility at 24 h ([1]; aqueous buffer, acetate buffer pH 4.5, 37 degrees Celsius, read-out: solubility in acetate buffer (pH 4.5)) of 17.97 ± 0.113 mg/mL and a solubility at 24 h ([1]; aqueous buffer, phosphate buffer pH 6.8, 37 degrees Celsius, read-out: solubility in phosphate buffer (pH 6.8)) of 8.442 ± 0.069 mg/mL. The solubility at 24 h ([1]; distilled water, 37 degrees Celsius, read-out: solubility in distilled water) was 0.148 ± 0.028 mg/mL and the “water solubility (in words)” value [3] was “poorly soluble in water”.

For CC[C@H]1OC(=O)[C@H](C)[C@@H](O[C@H]2C[C@@](C)(OC)[C@@H](O)[C@H](C)O2)[C@H](C)[C@@H](O[C@@H]2O[C@H](C)C[C@H](N(C)C)[C@H]2O)[C@](C)(O)C[C@@H](C)CN(C)[C@H](C)[C@@H](O)[C@]1(C)O [azithromycin, (2R,3S,4R,5R,8R,10R,11R,12S,13S,14R)-2-ethyl-3,4,10-trihydroxy-3,5,6,8,10,12,14-heptamethyl-15-oxo-11-{[3,4,6-trideoxy-3-(dimethylamino)-β-D-xylo-hexopyranosyl]oxy}-1-oxa-6-azacyclopentadec-13-yl 2,6-dideoxy-3-C-methyl-3-O-methyl-α-L-ribo-hexopyranoside], the “bioavailability (share of an orally administered dose reaching systemic circulation)” value [4] is given as 38% and the acid stability [5] is given as “acid-stable”.
